Experimental data taken from US12559481B2, “Quinoline derivatives” (ELANCO ANIMAL HEALTH GMBH, priority 2018, dated 2026).

Tests used:
[1] = tested on: Adult Nippostrongylus brasiliensis; experiment: In vitro assay 3: Nippostrongylus brasiliensis (NIPOBR), acetylcholine esterase readout; settings: read-out: activity (reduction of AChE compared to negative control); for inhibition at 1 µg/mL: 1 μg/ml; for inhibition at 10 µg/mL: 10 μg/ml
Protocol: In Vitro Assay 3: Nippostrongylus Brasiliensis (NIPOBR)
Adult Nippostrongylus brasiliensis were washed with saline buffer containing 100 U/ml penicillin, 0.1 mg/ml streptomycin and 2.5 μg/ml amphotericin B. Test compounds were dissolved in DMSO and worms were incubated in medium in a final concentration of 10 μg/ml (10 ppm) respectively 1 μg/ml (1 ppm). An aliquot of the medium was used to determine the acetylcholine esterase activity in comparison to a negative control. The principle of measuring acetylcholine esterase as readout for anthelmintic activity was described in Rapson et al (1986) and Rapson et al (1987).

[2] = tested on: Dirofilaria immitis microfilariae; experiment: In vitro assay 4: Dirofilaria immitis microfilariae (DIROIM L1) motility; settings: 72 h, read-out: EC50 (reduction of motility)
[3] = tested on: Dirofilaria immitis third-stage larvae; experiment: In vitro assay 5: Dirofilaria immitis (DIROIM L4) larval motility; settings: 72 h, read-out: EC50 (reduction of motility)
D. immitis Slo-1 = D. immitis Slo-1 (Dirofilaria immitis, UniProt I0DFK5); experiment: In vitro assay 2: D. immitis Slo-1, membrane potential in recombinant CHO cell line; format: cell-based
Haemonchus contortus = experiment: In vitro assay 7: Haemonchus contortus (HAEMCO) larval mortality; settings: 120 h, read-out: activity (larval mortality)
Protocol: In Vitro Assay 7: Haemonchus contortus (HAEMCO)
Solvent: Dimethyl Sulfoxide
Approximately 40 larvae of the red stomach worm (Haemonchus contortus) are transferred into a test tube containing compound solution.
After 5 days the percentage of larval mortality is recorded. 100% efficacy means all larvae are killed, 0% efficacy means no larvae are killed.

Cooperia curticei = experiment: In vitro assay 6: Cooperia curticei (COOPCU) larval mortality; settings: 120 h, read-out: activity (larval mortality)
Protocol: In Vitro Assay 6: Cooperia curticei (COOPCU)
Solvent: Dimethyl Sulfoxide
Approximately 40 nematode larvae (Cooperia curticei) are transferred into a test tube containing the compound solution.
After 5 days percentage of larval mortality is recorded. 100% efficacy means all larvae are killed; 0% efficacy means no larvae are killed.

C. elegans Slo-1a = C. elegans Slo-1a (Caenorhabditis elegans, UniProt Q95V25)
Protocol: In Vitro Assay 1: C. elegans Slo-1a—Action at a Recombinant C. elegans Cell Line
Generation of a Stable C. elegans CHO Cell Line
For transfection with plasmid DNA to express C. elegans Slo-1a (accession number AAL28102) CHO cells were passaged to 40% confluence before adding the transfection solution to the cell culture. The transfection solution included 300 μL OptiMEM (Life Technologies, Nr.: 31985), 2 μL (=6 μg) of plasmid DNA containing the C. elegans Slo 1a gene and 9 μL FugeneHD (Promega, Nr.: E2311), and was added to the cells prior to incubation for 48 hours at 37° C., 5% CO2. The transfection medium was exchanged for the selection medium which contains additional G418 (2 mg/ml, Invitrogen, Nr.: 10131) and the cells were seeded into 384 well plates (300 cells/well). After a few weeks, the remaining surviving cells were tested with a voltage sensitive dye (Membrane Potential Assay Kit, Molecular Devices Nr.: R8034) for K+ channel expression. Positive cell clones were purified by the limited dilution technique. For this the clone with the highest and most robust signal in the voltage sensitive dye assay was further subcloned (incubated) in 384 well plates (0.7 cells/well) in order to obtain clonal purity. This generated a final stable CHO cell line expressing the C. elegans Slo-1a.
Cells were cultured at 37° C., and 5% CO2 in MEMalpha with Glutamax I (Invitrogen, Nr.: 32571), supplemented with 10% (v/v) heat inactivated fetal bovine serum (Invitrogen, Nr.: 10500), G418 (1 mg/ml. Invitrogen. Nr.: 10131). Cells were detached using Accutase (Sigma. Nr.: A6964).
Membrane Potential Measurements
Laboratory compound testing was performed on 384-well microtiter plates (MTPs, Greiner, Nr.: 781092), 8000 cells/well were plated onto 384-well MTPs and cultured for 20 to 24 hours at 37° C., and 5% CO2. After removal of the cell culture medium, the cells were washed once with tyrode (150 mM NaCl, 0.3 mM KCl, 2 mM CaCl2. 1 mM MgCl2. 0.8 mM NaH2PO4, 5 mM Glucose, 28 mM Hepes, pH 7.4) and then loaded with the voltage sensitive dye of the Membrane Potential Assay Kit diluted in tyrode for 1 h at room temperature.
After starting the measurement of fluorescence using a FLIPR Tetra (Molecular Devices, Exc. 510-545 nm, Emm. 565-625 nm), test compounds were added followed by the addition of KCl tyrode (final assay concentration: 70 mM KCl, 2 mM CaCl2, 1 mM MgCl2, 0.8 mM NaH2PO4, 5 mM Glucose, 28 mM Hepes, pH 7.4, including the voltage sensitive dye). The measurement was completed after 7 minutes.
The data were evaluated by using the ActivityBase XLfit software (IDBS) for curve fitting and calculation of the half-maximal effective concentration (EC50) and are reported as negative decadic logarithm (pE50).

[4] = log P by HPLC on reversed phase columns (LC-MS Method 0)
Protocol: Measurement of log P values was performed according to EEC directive 79/831 Annex V.A8 by HPLC (High Performance Liquid Chromatography) on reversed phase columns with the following methods, instrument(s): Agilent 1100 LC system, Agilent MSD system, HTS PAL; Waters IClass Acquity UPLC, SQD2 (MS), PDA (LV). • ^[a] log P value is determined by measurement of LC-UV, in an acidic range, with 0.1% formic acid in water and acetonitrile as eluent (linear gradient from 10% acetonitrile to 95% acetonitrile). • ^[b] log P value is determined by measurement of LC-UV, in a neutral range, with 0.001 molar ammonium acetate solution in water and acetonitrile as eluent (linear gradient from 10% acetonitrile to 95% acetonitrile).
Calibration was done with straight-chain alkan-2-ones (with 3 to 16 carbon atoms) with known log P values (measurement of log P values using retention times with linear interpolation between successive alkanones). Lambda-max-values were determined using UV-spectra from 200 nm to 400 nm and the peak values of the chromatographic signals.

C. elegans Slo-1a, sequence (Q95V25 whole entry): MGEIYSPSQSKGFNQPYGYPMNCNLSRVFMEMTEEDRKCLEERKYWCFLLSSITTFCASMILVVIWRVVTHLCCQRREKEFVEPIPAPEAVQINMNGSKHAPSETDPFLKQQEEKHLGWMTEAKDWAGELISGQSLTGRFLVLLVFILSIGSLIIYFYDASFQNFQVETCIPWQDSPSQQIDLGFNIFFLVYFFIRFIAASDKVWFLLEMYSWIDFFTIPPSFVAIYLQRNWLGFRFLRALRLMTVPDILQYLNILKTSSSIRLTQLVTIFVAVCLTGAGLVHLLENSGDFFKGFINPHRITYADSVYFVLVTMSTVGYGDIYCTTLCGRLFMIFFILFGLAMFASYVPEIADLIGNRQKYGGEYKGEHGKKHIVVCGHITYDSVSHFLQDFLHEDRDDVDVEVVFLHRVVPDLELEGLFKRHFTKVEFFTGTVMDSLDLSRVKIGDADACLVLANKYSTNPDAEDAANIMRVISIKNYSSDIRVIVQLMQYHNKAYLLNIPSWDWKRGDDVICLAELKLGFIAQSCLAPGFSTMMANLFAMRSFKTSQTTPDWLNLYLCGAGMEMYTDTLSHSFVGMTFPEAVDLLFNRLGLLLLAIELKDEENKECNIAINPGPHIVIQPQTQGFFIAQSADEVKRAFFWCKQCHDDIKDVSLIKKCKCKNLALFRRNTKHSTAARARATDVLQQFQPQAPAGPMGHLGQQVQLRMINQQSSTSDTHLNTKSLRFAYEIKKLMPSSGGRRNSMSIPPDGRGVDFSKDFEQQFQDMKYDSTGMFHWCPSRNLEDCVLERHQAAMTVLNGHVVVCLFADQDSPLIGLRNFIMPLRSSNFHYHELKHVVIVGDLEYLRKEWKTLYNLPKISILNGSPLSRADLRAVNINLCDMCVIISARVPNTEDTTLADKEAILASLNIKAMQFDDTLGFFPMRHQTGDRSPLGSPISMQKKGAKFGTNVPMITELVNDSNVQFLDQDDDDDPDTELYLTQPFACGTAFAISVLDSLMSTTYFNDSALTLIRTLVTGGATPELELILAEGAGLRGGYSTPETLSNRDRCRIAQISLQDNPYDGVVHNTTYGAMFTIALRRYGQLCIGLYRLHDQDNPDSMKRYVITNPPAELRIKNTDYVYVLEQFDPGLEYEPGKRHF
D. immitis Slo-1, sequence (I0DFK5 1-1119): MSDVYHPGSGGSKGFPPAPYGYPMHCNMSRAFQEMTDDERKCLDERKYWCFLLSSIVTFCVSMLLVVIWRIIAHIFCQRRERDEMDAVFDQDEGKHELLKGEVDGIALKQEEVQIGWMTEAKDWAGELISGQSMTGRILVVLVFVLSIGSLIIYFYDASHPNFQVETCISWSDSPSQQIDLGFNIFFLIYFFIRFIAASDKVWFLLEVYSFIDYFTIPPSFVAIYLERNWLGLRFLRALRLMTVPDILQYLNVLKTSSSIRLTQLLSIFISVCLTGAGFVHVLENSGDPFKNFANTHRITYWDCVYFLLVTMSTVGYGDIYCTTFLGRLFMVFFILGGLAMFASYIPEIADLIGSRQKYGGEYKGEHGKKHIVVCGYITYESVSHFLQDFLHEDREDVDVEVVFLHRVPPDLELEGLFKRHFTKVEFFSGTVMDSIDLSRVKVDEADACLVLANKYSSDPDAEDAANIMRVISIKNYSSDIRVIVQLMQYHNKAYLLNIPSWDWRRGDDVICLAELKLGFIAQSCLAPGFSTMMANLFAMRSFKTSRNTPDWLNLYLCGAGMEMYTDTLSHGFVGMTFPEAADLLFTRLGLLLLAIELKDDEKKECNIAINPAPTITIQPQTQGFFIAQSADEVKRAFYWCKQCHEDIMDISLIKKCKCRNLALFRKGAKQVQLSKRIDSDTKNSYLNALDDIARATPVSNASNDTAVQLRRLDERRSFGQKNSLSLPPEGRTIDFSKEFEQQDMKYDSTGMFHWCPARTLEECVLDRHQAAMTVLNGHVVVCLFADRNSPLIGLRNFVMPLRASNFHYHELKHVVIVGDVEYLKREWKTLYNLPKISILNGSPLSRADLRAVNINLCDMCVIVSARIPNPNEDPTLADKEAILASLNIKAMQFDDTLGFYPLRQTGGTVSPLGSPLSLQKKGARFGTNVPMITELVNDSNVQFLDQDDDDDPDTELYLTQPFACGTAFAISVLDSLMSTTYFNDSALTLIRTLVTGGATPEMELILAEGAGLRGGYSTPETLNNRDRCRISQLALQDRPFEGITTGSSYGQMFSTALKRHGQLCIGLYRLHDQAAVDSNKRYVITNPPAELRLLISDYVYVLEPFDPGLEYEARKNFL

Row | SMILES | inhibition at 1 µg/mL [1] | inhibition at 10 µg/mL [1] | EC50 [2] | EC50 [3] | EC50 (D. immitis Slo-1) | mortality at 20 ppm (Haemonchus contortus) | mortality at 0.8 ppm (Cooperia curticei) | mortality at 4 ppm (Cooperia curticei) | mortality at 20 ppm (Cooperia curticei) | EC50 (C. elegans Slo-1a) | mortality at 4 ppm (Haemonchus contortus) | chromatographic logP [4]
1 | O=C(NC1COc2ccccc21)c1cnc2c(-c3cc(F)cc(F)c3F)cccc2c1C1CCOCC1 (racemic) [Example 17] | > 80% | > 80% | < 0.1 µg/mL | < 0.1 µg/mL | 316 to 5010 nM | – | – | – | – | – | – | –
2 | O=C(N[C@H]1CCOc2ccccc21)c1cnc2c(-c3cc(F)cc(F)c3F)cccc2c1C1=CCOCC1 [Example 1, N-[(4S)-3,4-Dihydro-2H-chromen-4-yl]-4-(3,6-dihydro-2H-pyran-4-yl)-8-(2,3,5-trifluorophenyl)quinoline-3-carboxamide] | > 80% | – | < 0.1 µg/mL | < 0.1 µg/mL | 31.6 to 316 nM | 80% | 90% | 90% | 90% | < 3.16 nM | – | –
3 | O=C(N[C@H]1CCOc2ccccc21)c1cnc2c(-c3cc(F)cc(F)c3F)cccc2c1C1CCOCC1 [Example 2, N-[(4S)-3,4-Dihydro-2H-chromen-4-yl]-4-(tetrahydro-2H-pyran-4-yl)-8-(2,3,5-trifluorophenyl)quinoline-3-carboxamide] | > 80% | > 80% | < 0.1 µg/mL | < 0.1 µg/mL | 3.16 to 31.6 nM | 90% | 100% | 100% | – | < 3.16 nM | 90% | –
4 | O=C(N[C@H]1CCOc2ccccc21)c1cnc2c(-c3cc(F)cc(F)c3F)c(F)ccc2c1C1CCOCC1 [Example 3, N-[(4S)-3,4-Dihydro-2H-chromen-4-yl]-7-fluoro-4-(tetrahydro-2H-pyran-4-yl)-8-(2,3,5-trifluorophenyl)quinoline-3-carboxamide] | > 80% | > 80% | < 0.1 µg/mL | < 0.1 µg/mL | 3.16 to 31.6 nM | – | – | – | – | – | – | –
5 | CCc1c(C(=O)N[C@H]2CCOc3ccccc32)cnc2c(-c3cc(F)cc(F)c3F)c(F)ccc12 [Example 4, N-[(4S)-3,4-Dihydro-2H-chromen-4-yl]-4-ethyl-7-fluoro-8-(2,3,5-trifluorophenyl)quinoline-3-carboxamide] | > 80% | > 80% | < 0.1 µg/mL | < 0.1 µg/mL | 3.16 to 31.6 nM | – | – | – | – | < 3.16 nM | – | –
6 | O=C(N[C@H]1CCOc2ccccc21)c1cnc2c(-c3cc(F)cc(F)c3F)c(F)ccc2c1N1CC(F)C1 [Example 5, N-[(4S)-3,4-Dihydro-2H-chromen-4-yl]-7-fluoro-4-(3-fluoroazetidin-1-yl)-8-(2,3,5-trifluorophenyl)quinoline-3-carboxamide] | > 80% | > 80% | < 0.1 µg/mL | < 0.1 µg/mL | 3.16 to 31.6 nM | – | – | – | – | 3.16 to 31.6 nM | – | 1.93
7 | O=C(N[C@H]1CCOc2ccccc21)c1cnc2c(-c3cc(F)cc(F)c3F)c(F)ccc2c1C1=CCOCC1 [Example 6, N-[(4S)-3,4-dihydro-2H-chromen-4-yl]-4-(3,6-dihydro-2H-pyran-4-yl)-7-fluoro-8-(2,3,5-trifluorophenyl)quinoline-3-carboxamide] | > 80% | > 80% | < 0.1 µg/mL | < 0.1 µg/mL | 3.16 to 31.6 nM | – | – | – | – | – | – | –
8 | COc1ccc2c(C3CCOCC3)c(C(=O)N[C@H]3CCOc4ccccc43)cnc2c1-c1cc(F)cc(F)c1F [Example 7, N-[(4S)-3,4-dihydro-2H-chromen-4-yl]-7-methoxy-4-(tetrahydro-2H-pyran-4-yl)-8-(2,3,5-trifluorophenyl)quinoline-3-carboxamide] | > 80% | > 80% | < 0.1 µg/mL | < 0.1 µg/mL | 3.16 to 31.6 nM | – | – | – | – | < 3.16 nM | – | –
9 | O=C(NC1CCSc2ccc(F)cc21)c1cnc2c(-c3cc(F)cc(F)c3F)c(F)ccc2c1N1CC(F)C1 (stereo not drawn) [Example 8] | – | > 80% | < 0.1 µg/mL | < 0.1 µg/mL | 316 to 5010 nM | – | – | – | – | – | – | –
10 | Cc1ccc2c(c1)[C@@H](NC(=O)c1cnc3c(-c4cc(F)cc(F)c4F)c(F)ccc3c1N1CC(F)C1)CCO2 [Example 9] | > 80% | > 80% | < 0.1 µg/mL | < 0.1 µg/mL | 316 to 5010 nM | – | – | – | – | – | – | –
11 | O=C(N[C@H]1CCOc2ccc(F)cc21)c1cnc2c(-c3cc(F)cc(F)c3F)c(F)ccc2c1N1CC(F)C1 [Example 10] | > 80% | > 80% | < 0.1 µg/mL | < 0.1 µg/mL | 31.6 to 316 nM | – | – | – | – | < 3.16 nM | – | –
12 | O=C(N[C@H]1CCCc2ccccc21)c1cnc2c(-c3cc(F)cc(F)c3F)c(F)ccc2c1N1CC(F)C1 [Example 11] | > 80% | > 80% | < 0.1 µg/mL | < 0.1 µg/mL | – | – | – | – | – | < 3.16 nM | – | –
13 | O=C(N[C@H]1CCc2ccccc21)c1cnc2c(-c3cc(F)cc(F)c3F)c(F)ccc2c1N1CC(F)C1 [Example 12] | > 80% | > 80% | < 0.1 µg/mL | < 0.1 µg/mL | 31.6 to 316 nM | – | – | – | – | < 3.16 nM | – | –
14 | CC1(C)C[C@H](NC(=O)c2cnc3c(-c4cc(F)cc(F)c4F)c(F)ccc3c2N2CC(F)C2)c2ccccc2O1 [Example 13] | – | > 80% | < 0.1 µg/mL | < 0.1 µg/mL | 316 to 5010 nM | – | – | – | – | 3.16 to 31.6 nM | – | –
15 | N#Cc1ccc2c(c1)[C@@H](NC(=O)c1cnc3c(-c4cc(F)cc(F)c4F)c(F)ccc3c1N1CC(F)C1)CCO2 [Example 14] | – | > 80% | < 0.1 µg/mL | < 0.1 µg/mL | 316 to 5010 nM | – | – | – | – | 31.6 to 316 nM | – | –
16 | O=C(N[C@H]1CCOc2ccccc21)c1cnc2c(-c3cc(F)cc(F)c3F)cccc2c1N1CC(F)C1 [Example 15] | > 80% | > 80% | < 0.1 µg/mL | < 0.1 µg/mL | 31.6 to 316 nM | – | – | – | – | < 3.16 nM | – | –
17 | O=C(N[C@H]1CCc2ccccc21)c1cnc2c(-c3cc(F)cc(F)c3F)c(F)ccc2c1C1CCOCC1 [Example 16] | > 80% | > 80% | < 0.1 µg/mL | < 0.1 µg/mL | 3.16 to 31.6 nM | – | – | – | – | < 3.16 nM | – | –
18 | CC(C)Oc1ccc2c(C3CCOCC3)c(C(=O)N[C@H]3CCOc4ccccc43)cnc2c1-c1cc(F)cc(F)c1F [Example 18] | > 80% | > 80% | < 0.1 µg/mL | < 0.1 µg/mL | 316 to 5010 nM | – | – | – | – | – | – | –
19 | O=C(N[C@H]1CCc2ccccc21)c1cnc2c(-c3cc(F)cc(F)c3F)cccc2c1C1CCOCC1 [Example 19] | > 80% | > 80% | < 0.1 µg/mL | < 0.1 µg/mL | 316 to 5010 nM | – | – | – | – | < 3.16 nM | – | –
20 | O=C(N[C@H]1CCCc2ccccc21)c1cnc2c(-c3cc(F)cc(F)c3F)cccc2c1C1CCOCC1 [Example 20] | > 80% | > 80% | < 0.1 µg/mL | < 0.1 µg/mL | 31.6 to 316 nM | – | – | – | – | – | – | –
21 | CCc1c(C(=O)N[C@H]2CCOc3ccccc32)cnc2c(-c3cc(F)cc(F)c3F)c(Cl)ccc12 [Example 21] | > 80% | > 80% | < 0.1 µg/mL | < 0.1 µg/mL | – | – | – | – | – | < 3.16 nM | – | –
22 | CCc1c(C(=O)N[C@H]2CCc3ccccc32)cnc2c(-c3cc(F)cc(F)c3F)c(Cl)ccc12 [Example 22] | > 80% | > 80% | < 0.1 µg/mL | < 0.1 µg/mL | 3.16 to 31.6 nM | – | – | – | – | – | – | –
23 | O=C(N[C@H]1CCOc2ccccc21)c1cnc2c(Br)c(F)ccc2c1Cl [Intermediate 14A, 8-Bromo-4-chloro-N-[(4S)-3,4-dihydro-2H-chromen-4-yl]-7-fluoroquinoline-3-carboxamide] | – | – | – | – | – | – | – | – | – | – | – | 3.18
24 | O=C(N[C@H]1CCOc2ccccc21)c1cnc2c(Br)c(F)ccc2c1N1CC(F)C1 [Intermediate 15A, 8-Bromo-N-[(4S)-3,4-dihydro-2H-chromen-4-yl]-7-fluoro-4-(3-fluoroazetidin-1-yl)quinoline-3-carboxamide] | – | – | – | – | – | – | – | – | – | – | – | 1.29
